Series [1] has as its system hepatic de novo lipogenesis. The experiment in a line: Hepatic de novo lipogenesis (14C-glucose) in a murine model of NASH. Type of series: in vivo, mouse. Particulars: for Hepatic de novo lipogenesis, Mean (DPM/gram liver tissue/hour): high fat/high fructose fed mice. The procedure:
Experimental Protocol. FIG. 22 summarizes the study protocol. Mice were dosed daily for 7 days with a single dose of either Compound I-32 or Compound I-1 at a dose of 10 mg/kg, 30 mg/kg or 60 mg/kg. On the 8th day of the experiment mice receive final dose of Compound I-32 or Compound I-1, followed one hour later by an I.P. bolus of 14—C Glucose.
C57BL6J (8 weeks of age) were obtained for the Jackson Laboratory and fed a normal chow diet upon arrival. At ˜10 weeks of age, mice were given a diet containing high fat and high fructose (Rodent Diet with 40 kcal % Fat (Mostly Palm Oil), 20 kcal % fructose, and 0.02% cholesterol, obtained from Research Diets, Product Code: D19101102) and housed at thermoneutral conditions (26-29° C.). After 7-8 months the mice were divided into 7 groups and received a single daily dose via gavage of either vehicle (1.5% CMC and 0.2% Tween-20) or vehicle containing Compound I-32 or Compound I-1 at a concentration of 10 mg/kg, 30 mg/kg, or 60 mg/kg for 7 days. On the morning of day 8, animals received a final dose and after 1 hour ^14C-glucose (PerkinElmer) was administered at a concentration of 12 μCi per mouse in a volume of 0.1 ml in 0.9% saline I.P. One hour after ^14C-glucose was given, animals were anesthetized by I.P. injection of Ketamine/Xylazine (150 mg/12.4 mg/kg, respectively). Blood was drawn through cardiac puncture; the liver was removed, and a sample was from the left lobe and frozen in liquid nitrogen. Liver tissue was chipped on dry-ice and the weight of the chip weight recorded (30-50 mg of tissue). Liver tissue was homogenized in 1 ml of 2:1 chloroform: methanol using a bead homogenizer at 5000 rpm for 2×12 seconds. Samples were incubated with gentle shaking at 4° C. for 2 hours, vortexed for 2×12 seconds, and then centrifuge at 7000 rpm for 10 minutes at 4° C. The supernatant was transferred to a 1.5 ml Eppendorf and 200 μl of 0.9% saline was added. Samples were vortexed for 2×12 seconds and centrifuged at 3000 rpm for 10 minutes at 4° C. 200 μl of the lower organic phase was removed and added to 5 ml of scintillation fluid. The amount radioactivity in the sample was measured by scintillation counting. The number of disintegrations per minute (DPM) were determined over a 5-minute period and normalized to the amount of liver tissue. 5-10 μl of plasma obtained at termination was also counted and lipid/gram tissue counts were normalized to plasma counts. Statistical comparisons were carried out using a one-way ANOVA followed by Dunnett's post hoc test using GraphPad Prism 8 software. A p-value of less than or equal to 0.05 was used as the criterion of significance.

The target in another series is Aurora B (Homo sapiens (Human), UniProt Q96GD4). The experiment in a line: Wild type kinase screen: Aurora B. Particulars: compound at 10 μM, 10 μM ATP, Data 1 and Data 2 duplicates. Type of series: biochemical.
Chain of Aurora B (Q96GD4 whole entry): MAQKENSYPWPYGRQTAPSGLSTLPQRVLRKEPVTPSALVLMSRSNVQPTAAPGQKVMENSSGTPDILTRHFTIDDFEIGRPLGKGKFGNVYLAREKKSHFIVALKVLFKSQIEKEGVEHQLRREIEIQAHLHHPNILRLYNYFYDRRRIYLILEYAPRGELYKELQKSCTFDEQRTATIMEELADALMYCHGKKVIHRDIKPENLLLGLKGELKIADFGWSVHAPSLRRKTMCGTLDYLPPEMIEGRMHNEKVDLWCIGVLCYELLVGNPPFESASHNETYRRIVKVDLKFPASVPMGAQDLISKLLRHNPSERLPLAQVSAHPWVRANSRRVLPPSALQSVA
Series [2] deals with human hematopoietic stem and progenitor cells. The experiment in a line: Megakaryopoiesis and platelet production in cultured human hematopoietic stem and progenitor cells. It is filed as cell-based. Conditions: for Inhibition of megakaryocyte/platelet parameters after addition on day 6 of culture: 30 μM added on day 6; for Inhibition of megakaryopoiesis or platelet production (overall): 30 μM, cultured human HSPC; for CD41a+ mean fluorescence intensity (MFI), normalized / Normalized cell size (CD41a+) / CD41a CD42b+ counts (mature megakaryocytes), normalized to reference media control / CD41a+ cells (megakaryocytes), normalized to reference media control / Platelet counts, normalized to reference media control: added day 0, 8 days culture, I-32 and I-1 30 μM, ABT-737 6 μmol; for CD41a CD42b+ counts (mature megakaryocytes), normalized to reference media control / CD41a+ cells (megakaryocytes), normalized to reference media control / Platelet counts, normalized to reference media control: average±SD. The method, then: Materials and Methods. Hematopoietic stem and progenitor cells, identified as viable CD45+ CD34+ cells, were isolated from peripheral blood of healthy donors by a method known in the art (see Ivetic N, Nazi I, Karim N et al. Producing megakaryocytes from a human peripheral blood source. Transfusion 2016; 56:1066-74). These isolated cells were then analyzed for purity before being expanded for four days using a commercial supplement to increase their cell population. After expansion, the cells were analyzed for purity, washed, and stimulated with a saturating concentration of thrombopoietin (20 ng/mL) and stem cell factor (50 ng/mL) to begin megakaryopoiesis. Compound I-32 and Compound I-1 were added at this timepoint at a concentration of 30 μM. The cells were then cultured for 8 days to develop into megakaryocytes and analyzed via flow cytometry to assess their number, maturity, and platelet count as defined by CD41a, CD42b and Calcein-AM expression. In addition, Compound I-32 and Compound I-1 were added to cells during the later stages of development (day 6) to assess their impact on maturation. ABT-737 (6 μmol) was used as a positive control and a DMSO vehicle control (<0.15% v/v) was the negative control. All counts are normalized to a media control (PBS) as a reference for basic cell growth.
Statistical analysis. Statistical analyses were carried out by comparing effects on measured parameters in comparison to vehicle control. A value of […] (One-way ANOVA multiple comparisons) was considered as significant.
Two isolations were performed from two healthy donors (2 males) and used to assess the impacts of Compound I-32 and Compound I-1. For one of the isolations, enough expanded hematopoietic stem and progenitor cells (HSPC) (Experiment 1) were obtained so that the addition of the compounds on day 6 was also performed along with the initial experiment. For the other experiment (Experiment 2) only an 8-day incubation was performed.
All results were normalized to a reference media (PBS) and Compound I-32 and Compound I-1 were compared to a vehicle control. Reference compound ABT-737 is a known BCL-2 inhibitor and was used a positive control. Results in FIGS. 25A-25J are the summary of a single experiments conducted in triplicates. No statistical inhibition was detected for Compound I-32 or Compound I-1 (p>0.05 one-way ANOVA).

The target of the next series is c-Kit (Homo sapiens (Human), UniProt P10721). The experiment in a line: Wild type kinase screen: c-Kit. Type of series: biochemical. Particulars: compound at 10 μM, 10 μM ATP, Data 1 and Data 2 duplicates.
Chain of c-Kit (P10721 26-976): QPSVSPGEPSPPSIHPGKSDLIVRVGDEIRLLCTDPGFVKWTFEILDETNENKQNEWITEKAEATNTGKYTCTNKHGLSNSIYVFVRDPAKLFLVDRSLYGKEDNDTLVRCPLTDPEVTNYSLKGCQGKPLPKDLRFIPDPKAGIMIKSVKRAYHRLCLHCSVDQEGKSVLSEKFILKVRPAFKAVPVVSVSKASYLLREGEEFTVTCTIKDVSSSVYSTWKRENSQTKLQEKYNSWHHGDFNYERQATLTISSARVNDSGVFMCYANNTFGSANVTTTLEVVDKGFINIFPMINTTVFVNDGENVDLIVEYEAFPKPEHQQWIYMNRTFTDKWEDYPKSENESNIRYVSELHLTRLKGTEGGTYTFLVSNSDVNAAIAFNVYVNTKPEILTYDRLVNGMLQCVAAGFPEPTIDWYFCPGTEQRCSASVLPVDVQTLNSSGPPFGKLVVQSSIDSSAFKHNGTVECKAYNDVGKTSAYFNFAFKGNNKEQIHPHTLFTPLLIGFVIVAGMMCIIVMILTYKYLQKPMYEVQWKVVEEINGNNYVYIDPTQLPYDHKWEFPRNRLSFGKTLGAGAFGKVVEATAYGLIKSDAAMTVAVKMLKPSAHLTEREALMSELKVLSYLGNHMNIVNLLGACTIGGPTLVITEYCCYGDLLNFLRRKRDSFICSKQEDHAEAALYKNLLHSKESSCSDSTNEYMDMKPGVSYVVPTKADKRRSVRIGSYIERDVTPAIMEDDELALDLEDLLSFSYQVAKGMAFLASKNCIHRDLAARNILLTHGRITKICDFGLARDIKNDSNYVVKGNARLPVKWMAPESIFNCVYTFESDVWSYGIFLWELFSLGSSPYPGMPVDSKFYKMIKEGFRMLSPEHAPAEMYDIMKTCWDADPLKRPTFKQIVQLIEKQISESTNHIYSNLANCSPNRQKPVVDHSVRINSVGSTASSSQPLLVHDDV
[3] abbreviates: 10 mg/kg daily oral gavage for 7 days.
[4] abbreviates: 30 mg/kg daily oral gavage for 7 days.
Where [5] appears, read: 60 mg/kg daily oral gavage for 7 days.

Several values for one entry are separate records, joined by “and”; a condition that tells them apart may be missing. Identical values can stand only once. Entries after “also recorded” stand apart in the source; their conditions may differ.

`CC(C)(CCCCc1cccc(CCCCC(C)(C)C(=O)O)c1)C(=O)O` [Compound I-32, 6-[3-(5-carboxy-5-methylhexyl)-phenyl]-2,2-dimethylhexanoic acid]: in series [1] (setting [3]), the “Hepatic de novo lipogenesis, % change from vehicle control (inhibition)” value is 48.79% and the “Hepatic de novo lipogenesis, Mean (DPM/gram liver tissue/hour)” value was 50.61 DPM/gram liver tissue/hour. In series [1] (setting [4]), the “Hepatic de novo lipogenesis, % change from vehicle control (inhibition)” value came out at 37.42% and the “Hepatic de novo lipogenesis, Mean (DPM/gram liver tissue/hour)” value is listed as 61.85 DPM/gram liver tissue/hour. In series [1] (setting [5]), the “Hepatic de novo lipogenesis, % change from vehicle control (inhibition)” value was 53% and 52.90%; the “Hepatic de novo lipogenesis, Mean (DPM/gram liver tissue/hour)” value was 46.55 DPM/gram liver tissue/hour. Also, the “% Enzyme Activity (relative to DMSO controls)” value at Aurora B came to 67.29%. Also, in series [2], the “Inhibition of megakaryocyte/platelet parameters after addition on day 6 of culture” value is “no inhibition detected”; the “Inhibition of megakaryopoiesis or platelet production (overall)” value is reported as “do not significantly affect; also recorded: do not inhibit”; the “CD41a+ mean fluorescence intensity (MFI), normalized” value amounted to 110±11%; the “Normalized cell size (CD41a+)” value turned out to be 94±3%. Moreover, in series [2], the “CD41a CD42b+ counts (mature megakaryocytes), normalized to reference media control” value amounted to 106±17%; the “CD41a+ cells (megakaryocytes), normalized to reference media control” value is recorded as 98±3%; the “Platelet counts, normalized to reference media control” value is reported as 134±34%. Also, on c-Kit, the “% Enzyme Activity (relative to DMSO controls)” value is 71.52%.

For the molecule `CC(C)(CCCCc1ccc(CCCCC(C)(C)C(=O)O)cc1)C(=O)O` [Compound I-1, 6-[4-(5-carboxy-5-methylhexyl)-phenyl]-2,2-dimethylhexanoic acid], the “Hepatic de novo lipogenesis, Mean (DPM/gram liver tissue/hour)” value in series [1] (setting [3]) was 81.25 DPM/gram liver tissue/hour. Moreover, in series [1] (setting [4]), the “Hepatic de novo lipogenesis, % change from vehicle control (inhibition)” value was 56% and 55.65%; the “Hepatic de novo lipogenesis, Mean (DPM/gram liver tissue/hour)” value is reported as 43.83 DPM/gram liver tissue/hour. In series [1] (setting [5]), the “Hepatic de novo lipogenesis, % change from vehicle control (inhibition)” value was 69% and 68.96%; the “Hepatic de novo lipogenesis, Mean (DPM/gram liver tissue/hour)” value was 30.68 DPM/gram liver tissue/hour. Besides, the “% Enzyme Activity (relative to DMSO controls)” value on Aurora B turned out to be 63.21%. Further, in series [2], the “Inhibition of megakaryocyte/platelet parameters after addition on day 6 of culture” value is given as “no inhibition detected”; the “Inhibition of megakaryopoiesis or platelet production (overall)” value was “do not significantly affect; also recorded: do not inhibit”; the “CD41a+ mean fluorescence intensity (MFI), normalized” value is recorded as 109±10%; the “Normalized cell size (CD41a+)” value came out at 98±3%. Further, in series [2], the “CD41a CD42b+ counts (mature megakaryocytes), normalized to reference media control” value is 97±9%; the “CD41a+ cells (megakaryocytes), normalized to reference media control” value came to 94±2%; the “Platelet counts, normalized to reference media control” value amounted to 94±12%. Besides, the “% Enzyme Activity (relative to DMSO controls)” value on c-Kit was 81.06%.

Values taken from patent US20240398737A1, “FUNCTIONALIZED LONG-CHAIN HYDROCARBON MONO- AND DI-CARBOXYLIC ACIDS AND DERIVATIVES THEREOF, AND THEIR USE FOR THE PREVENTION OR TREATMENT OF DISEASE” (Espervita Therapeutics, Inc., priority 2021, published 2024).
